In patent US5602100A, “Dermorphin analogs having pharmacological activity” (priority 1988, dated 1997):
Like-named read-outs stand apart in the source and are kept apart here. Non-standard residues stand in square brackets, D forms with d. Residues, ends and D or L forms follow the SMILES beside them. dNle = CCCC[C@@H](N)C(=O)O; Orn = NCCC[C@H](N)C(=O)O; Dab = NCC[C@H](N)C(=O)O

Key:
δ-opioid receptor = molecular target: T1, δ-opioid receptor (Rattus norvegicus, UniProt P33533); experiment: biochemical; type: binding
T1 construct: displacement of the radioligands from the rat brain membrane preparations; from tissue; host or cells: rat brain membrane preparations

guinea pig ileum (GPI) [1] = type: cell-based
μ-opioid receptor = molecular target: T2, μ-opioid receptor (Rattus norvegicus, UniProt P33535); experiment: biochemical; type: binding
T2 construct: displacement of the radioligands from the rat brain membrane preparations; from tissue; host or cells: rat brain membrane preparations

PBQ-induced writhing = experiment: Mouse writhing test (PBQ); type: in vivo; conditions: dose reducing the number of writhes by 50%
Method: The mouse writhing test detects both peripherally and centrally mediated analgesic effects. The test procedure is described in Siegmund et al., Proc. Soc. Exp. Biol. Med., 95, p. 729 (1957). In this test, a control group of albino mice was injected intraperitoneally with 0.3 ml/20 g body weight of a 0.02% solution of 2-phenyl-1,4-benzoquinone (PBQ). The writhing and contortional movements of the mice over the following 15 minutes were recorded. A second group of mice was given a dose of a synthetic dermorphin analog according to this invention, then allowed to wait a period of time before being administered the PBQ injection. The average number of writhes was then recorded and compared to the control group. The results of this test are expressed as the dosage of peptide that reduces the number of writhes by 50% at a given time interval (referred to as ED50).

guinea pig ileum (GPI) [2] = experiment: Ke values for naloxone as antagonist in the GPI assay; type: cell-based; conditions: mean of three determinations ± SEM
Method: κ-receptor interactions were determined by measuring Ke values for naloxone as an antagonist in the GPI assay. High Ke values (in the range of 20-30 nM) are associated with κ-receptor interactions. Low Ke values (in the range of 1-2 nM) are associated with μ-receptor interactions. Ke values for naloxone were determined from the ratio of IC50 values obtained in the presence of and in the absence of a fixed naloxone concentration. The IC50 values of the tested compounds were normalized according to published procedure (F. M. Leslie, "Methods Used for the Study of Opioid Receptors", Pharmacological Reviews, 39 (1987)).

hot plate stimulus = experiment: Mouse hot plate test; type: in vivo
Method: The mouse hot plate test is an assay which only detects centrally-mediated analgesic effects. This test was carried out using the protocol described in G. Woolfe and A. MacDonald, J. Pharmacol. Exp. Ther., 80, p. 300 ([…]).
Since most of the peptides of the invention were not potent centrally, it was impossible to determine an ED50 value. […] A result is considered insignificant if 30% of mice or lower have responded.

[3] = Respiration rate (respiratory depression); type: in vivo, rat; conditions: control 142 ± 5
Method: In addition to the mouse writhing data, respiratory depression was measured in certain treated mice. Respiratory depression is a commonly observed side effect characteristic of centrally-acting opiates. These reulsts are expressed in Table 5.

mouse vas deferens (MVD) = type: cell-based

T2 sequence (P33535 whole entry): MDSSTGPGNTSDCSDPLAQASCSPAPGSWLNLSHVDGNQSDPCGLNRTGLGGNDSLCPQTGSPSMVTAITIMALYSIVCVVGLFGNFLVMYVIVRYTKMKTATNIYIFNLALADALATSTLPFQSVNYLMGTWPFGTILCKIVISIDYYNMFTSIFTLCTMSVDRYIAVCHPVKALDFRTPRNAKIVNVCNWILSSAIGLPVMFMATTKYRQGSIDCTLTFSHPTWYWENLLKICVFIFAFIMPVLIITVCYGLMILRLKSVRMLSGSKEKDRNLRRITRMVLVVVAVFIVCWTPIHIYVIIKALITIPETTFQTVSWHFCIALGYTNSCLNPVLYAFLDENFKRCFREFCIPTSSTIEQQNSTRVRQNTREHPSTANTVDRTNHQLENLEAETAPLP
T1 sequence (P33533 whole entry): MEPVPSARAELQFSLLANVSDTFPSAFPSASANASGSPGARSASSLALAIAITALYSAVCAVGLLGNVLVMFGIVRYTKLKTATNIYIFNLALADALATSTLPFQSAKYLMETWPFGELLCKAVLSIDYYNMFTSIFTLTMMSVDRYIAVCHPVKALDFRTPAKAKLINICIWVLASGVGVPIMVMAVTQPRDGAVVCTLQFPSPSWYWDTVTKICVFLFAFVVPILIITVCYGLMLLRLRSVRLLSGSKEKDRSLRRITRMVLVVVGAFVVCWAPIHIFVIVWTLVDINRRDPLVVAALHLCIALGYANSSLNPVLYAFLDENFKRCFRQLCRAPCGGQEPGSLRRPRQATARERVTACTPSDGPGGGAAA

Compound	Ki (δ-opioid receptor; read-out: [3H]HSLET Ki^δ)	GPI relative potency (guinea pig ileum (GPI) [1])	IC50 (guinea pig ileum (GPI) [1])	MVD/GPI IC50 ratio (guinea pig ileum (GPI) [1])	Ki^δ /Ki^μ (μ-opioid receptor)	Ki (μ-opioid receptor; read-out: [3H]DAGO Ki^μ)	PBQ (20 min.) ED50 (PBQ-induced writhing)	Ke (naloxone) (guinea pig ileum (GPI) [2])	% of animals showing a 50% increase (hot plate stimulus; dose 40 mg/kg, time 120 min.)	Breaths per min. ([3]; dose 30 mg/kg)	IC50 (mouse vas deferens (MVD))	MVD relative potency (mouse vas deferens (MVD))	Ki (δ-opioid receptor)	Ki (μ-opioid receptor)	% of animals showing a 50% increase (hot plate stimulus; dose 40 mg/kg, time 60 min.)	% of animals showing a 50% increase (hot plate stimulus; dose 100 mg/kg, time 60 min.)	% of animals showing a 50% increase (hot plate stimulus; dose 40 mg/kg, time 30 min.)	Breaths per min. ([3]; dose 100 mg/kg)	% of animals showing a 50% increase (hot plate stimulus; dose 100 mg/kg, time 120 min.)
CCCC[C@@H](NC(=O)[C@@H](N)Cc1ccc(O)cc1)C(=O)N[C@@H](Cc1ccccc1)C(=O)N[C@@H](CCCN)C(N)=O [BCH-1763, H-Tyr-D-Nle-Phe-Orn-NH2] (H-Y[dNle]F[Orn]-NH2)	2870 nM	1.46 ± 0.29	168 ± 33 nM	13.6	2130	1.35 nM	0.3 mg/kg	1.01 ± 0.18 nm	90%	162 ± 10 breaths per min.	2290 ± 270 nM	0.00498 ± 0.00058	–	–	–	–	–	–	–
N=C(N)NCCC[C@@H](NC(=O)[C@@H](N)Cc1ccc(O)cc1)C(=O)N[C@@H](Cc1ccccc1)C(=O)N[C@@H](CCN)C(N)=O [BCH-1764, H-Tyr-D-Arg-Phe-A2 bu-NH2] (H-Y[dR]F[Dab]-NH2)	–	0.956 ± 0.208	257 ± 56 nM	2.56	2180	–	0.13 mg/kg	1.32 ± 0.05 nm	–	–	659 ± 123 nM	0.0173 ± 0.0032	12600 nM	5.78 nM	100%	–	–	–	–
N=C(N)NCCC[C@@H](NC(=O)[C@@H](N)Cc1ccc(O)cc1)C(=O)N[C@@H](Cc1ccccc1)C(=O)N[C@@H](CCCN)C(N)=O [BCH-1765, H-Tyr-D-Arg-Phe-Orn-NH2]	9290 nM	0.712 ± 0.249	346 ± 121 nM	3.15	7740	1.2 nM	< 1 mg/kg	1.24 ± 0.12 nm	100%	–	1090 ± 279 nM	0.0105 ± 0.0027	–	–	–	–	–	–	–
C[C@@H](NC(=O)[C@@H](N)Cc1ccc(O)cc1)C(=O)N[C@@H](Cc1ccccc1)C(=O)N[C@@H](CCCCN)C(N)=O [BCH-1789, H-Tyr-D-Ala-Phe-Lys-NH2] (H-Y[dA]FK-NH2)	–	–	–	–	133	–	0.6 mg/kg	–	40%	182 ± 24 breaths per min.	–	–	4430 nM	33.3 nM	–	80%	–	–	–
CCCC[C@@H](NC(=O)[C@@H](N)Cc1ccc(O)cc1)C(=O)N[C@@H](Cc1ccccc1)C(=O)N[C@@H](CCCCN)C(N)=O [BCH-2205, H-Tyr-D-Nle-Phe-Lys-NH2] (H-Y[dNle]FK-NH2)	–	–	–	–	306	–	1.8 mg/kg	–	–	158 ± 7 breaths per min.	–	–	3800 nM	12.4 nM	–	60%	60%	150 ± 4 breaths per min.	–
CC(C)[C@@H](NC(=O)[C@@H](N)Cc1ccc(O)cc1)C(=O)N[C@@H](Cc1ccccc1)C(=O)N[C@@H](CCCCN)C(N)=O [BCH-2206, H-Tyr-D-Val-Phe-Lys-NH2] (H-Y[dV]FK-NH2)	–	–	–	–	> 384	–	4.8 mg/kg	–	30%	168 ± 13 breaths per min.	–	–	> 2530 nM	6.58 nM	–	–	–	–	90%
CC(C)C[C@H](NC(=O)[C@H](Cc1ccccc1)NC(=O)CNC(=O)CNC(=O)[C@@H](N)Cc1ccc(O)cc1)C(=O)O [Leu-enkephalin, [Leu^5]enkephalin, reference compound]	–	–	–	–	–	–	–	1.53 ± 0.43 nm	–	–	–	–	–	–	–	–	–	–	–
H-Tyr-D-Ala-Gly-Phe(NMe)-Gly-ol [DAGO, reference compound]	–	–	28 ± 3.7 nM	–	–	–	–	0.800 ± 0.100 nm	–	–	950 ± 269 nM	–	–	–	–	–	–	–	–
